# In paper PMC6399351, “Cationic Intrinsically Disordered Antimicrobial Peptides (CIDAMPs) Represent a New Paradigm of Innate Defense with a Potential for Novel Anti-Infectives” (Scientific Reports, 2019):
# Where “and” joins values, the source holds several entries; their conditions need not be identical. Equal values may be shown once. Read-outs that look alike come from different tables or passages of the source. Square brackets hold non-standard residues; d marks the D form. Ends that are not written are not given here. Peptide text beside a SMILES is read from it. * marks the point of attachment. Palmitoyl = CCCCCCCCCCCCCCCC(=O)*; Myristoyl = CCCCCCCCCCCCCC(=O)*; dOrn = NCCC[C@@H](N)C(=O)O; Orn = NCCC[C@H](N)C(=O)O
# Columns and labels:
# S. aureus ATCC 6538 = details: for LD90 / LD100: CFU assay, 10 mM NaP
# P. aeruginosa ATCC 10145 = details: CFU assay, 10 mM NaP, pH 5.5, 0.25% glucose
Compound,"LD90 (S. aureus ATCC 6538; pH 5.5, 0.25% glucose) [µg/mL]","LD100 (S. aureus ATCC 6538; pH 5.5, 0.25% glucose)",LD90 (P. aeruginosa ATCC 10145) [µg/mL],LD100 (P. aeruginosa ATCC 10145) [µg/mL],other results
CCCCCCCCCCCCCCCC(=O)NCC(=O)N[C@H](CCCNC(=N)N)C(=O)N[C@H](CCCNC(=N)N)C(=O)NCC(=O)NCC(=O)N[C@H](CCCNC(=N)N)C(=O)NCC(=O)NCC(=O)N[C@H](CCCNC(=N)N)C(=O)O [(D)-Pal-GR9] (Palmitoyl-G[dR][dR]GG[dR]GG[dR]-OH; C-terminus assumed),0.15,2.35 µg/mL,0.038,0.59,
CCCCCCCCCCCCCC(=O)NCC(=O)N[C@@H](CCCNC(=N)N)C(=O)N[C@@H](Cc1c[nH]cn1)C(=O)NCC(=O)N[C@@H](CO)C(=O)NCC(=O)N[C@@H](CC(C)C)C(=O)NCC(=O)N[C@@H](Cc1c[nH]cn1)C(=O)N[C@@H](CO)C(=O)N[C@@H](CO)C(=O)N[C@@H](CO)C(=O)N[C@@H](Cc1c[nH]cn1)C(=O)NCC(=O)N[C@@H](CCC(N)=O)C(=O)N[C@@H](Cc1c[nH]cn1)C(=O)NCC(=O)N[C@@H](CO)C(=O)NCC(=O)N[C@@H](CO)C(=O)NCC(=O)N[C@@H](CCCNC(=N)N)C(=O)O [Myr-HR 1-18] (Myristoyl-GRHGSGLGHSSSHGQHGSGSGR-OH; C-terminus assumed),9.38,75 µg/mL,0.075,0.3,"LD90 (S. aureus ATCC 6538; pH 7.3, 1% TSB): 18.75 µg/mL; LD100 (S. aureus ATCC 6538; pH 7.3, 1% TSB): 75 µg/mL"
CCCCCCCCCCCCCCCC(=O)NCC(=O)N[C@H](CCCCN)C(=O)NCC(=O)N[C@H](CCCCN)C(=O)O [Pal-(D)-GK4] (Palmitoyl-G[dK]G[dK]-OH; C-terminus assumed),4.7,9.375 µg/mL,1.18,4.7,
CCCCCCCCCCCCCCCC(=O)NCC(=O)N[C@H](CCCN)C(=O)NCC(=O)N[C@H](CCCN)C(=O)O [Pal-(D)-GO4] (Palmitoyl-G[dOrn]G[dOrn]-OH; C-terminus assumed),9.38,18.75 µg/mL,1.18,9.38,
CCCCCCCCCCCCCCCC(=O)NCC(=O)N[C@H](CCCNC(=N)N)C(=O)NCC(=O)N[C@H](CCCNC(=N)N)C(=O)O [Pal-(D)-GR4] (Palmitoyl-G[dR]G[dR]-OH; C-terminus assumed),18.75,37.5 µg/mL,18.75,150,
CCCCCCCCCCCCCCCC(=O)NCC(=O)N[C@@H](Cc1c[nH]cn1)C(=O)N[C@@H](Cc1c[nH]cn1)C(=O)NCC(=O)NCC(=O)N[C@@H](Cc1c[nH]cn1)C(=O)NCC(=O)NCC(=O)N[C@@H](Cc1c[nH]cn1)C(=O)NCC(=O)N[C@@H](Cc1c[nH]cn1)C(=O)NCC(=O)N[C@@H](Cc1c[nH]cn1)C(=O)O [Pal-GH13] (Palmitoyl-GHHGGHGGHGHGH-OH; C-terminus assumed),0.3,300 µg/mL,0.075,0.3,"LD90 (S. aureus ATCC 6538; pH 7.0, 0.25% glucose): 0.3 µg/mL; LD100 (S. aureus ATCC 6538; pH 7.0, 0.25% glucose): >300 µg/mL; S. aureus ATCC 6538-cidal activity (S. aureus ATCC 6538; pH 7.5, at concentrations >8 µM and <0.1 µM (antibiotic paradox)): complete loss of bactericidal activity"
CCCCCCCCCCCCCCCC(=O)NCC(=O)N[C@@H](CCCCN)C(=O)NCC(=O)N[C@@H](CCCCN)C(=O)O [Pal-GK4] (Palmitoyl-GKGK-OH; C-terminus assumed),4.7,9.375 µg/mL,,9.375,
CCCCCCCCCCCCCCCC(=O)NCC(=O)N[C@@H](CCCN)C(=O)NCC(=O)N[C@@H](CCCN)C(=O)O [Pal-GO4] (Palmitoyl-G[Orn]G[Orn]-OH; C-terminus assumed),9.38,,2.35,18.75,
CCCCCCCCCCCCCCCC(=O)NCC(=O)N[C@@H](CCCCN)C(=O)N[C@@H](CCCCN)C(=O)NCC(=O)NCC(=O)N[C@@H](CCCCN)C(=O)NCC(=O)NCC(=O)N[C@@H](CCCCN)C(=O)NCC(=O)N[C@@H](CCCCN)C(=O)NCC(=O)N[C@@H](CCCCN)C(=O)O [Pal-K-GR13] (Palmitoyl-GKKGGKGGKGKGK-OH; C-terminus assumed),0.59,>300 µg/mL,< 0.019,0.15,
CCCCCCCCCCCCCCCC(=O)NCC(=O)N[C@@H](CCCN)C(=O)N[C@@H](CCCN)C(=O)NCC(=O)NCC(=O)N[C@@H](CCCN)C(=O)NCC(=O)NCC(=O)N[C@@H](CCCN)C(=O)NCC(=O)N[C@@H](CCCN)C(=O)NCC(=O)N[C@@H](CCCN)C(=O)O [Pal-Orn-GR13] (Palmitoyl-G[Orn][Orn]GG[Orn]GG[Orn]G[Orn]G[Orn]-OH; C-terminus assumed),0.15,18.75 µg/mL,0.075,0.3,
CCCCCCCCCCCCCCCC(=O)SC[C@H](NC(=O)[C@H](CO)NC(=O)[C@H](CO)NC(=O)[C@H](CO)NC(=O)[C@H](CCC(N)=O)NC(=O)CNC(=O)[C@H](CO)NC(=O)[C@H](C)NC(=O)[C@H](CO)NC(=O)CNC(=O)[C@H](Cc1c[nH]cn1)NC(=O)[C@H](CCC(N)=O)NC(=O)CNC(=O)[C@H](Cc1c[nH]cn1)NC(=O)[C@@H](NC(=O)[C@H](CO)NC(=O)[C@H](CO)NC(=O)[C@H](Cc1c[nH]cn1)NC(=O)CNC(=O)[C@H](CO)NC(=O)[C@H](CO)NC(=O)[C@H](CO)NC(=O)CNC(=O)[C@H](Cc1c[nH]cn1)NC(=O)[C@H](CCC(N)=O)NC(=O)CN)[C@@H](C)O)C(N)=O [S-Pal-HRNR2004–2029] (H-GQHGSSSGHSSTHGQHGSASGQSSSC(Palmitoyl)-NH2; N-terminus assumed),0.59,> 150 µg/mL and 75 µg/mL,,,
"GRRGGGGGRGGGRGGRGGGGGR [HR 1-18,G+R]",> 300,> 300 µg/mL,,,
"GRRGSGGGRSSSRGGRGSGSGR [HR 1-18,4H-4R/L-G]",> 300,> 300 µg/mL,,0.15,
LRHGSGLGHSSSHGQHGSGSGR [HR 1-18-Leu],300,> 300 µg/mL,4.7,,
Pal-SHHRHFRSHQCRRQRS NSCDR [Pal-LCE-3C55-75],0.15,0.59 µg/mL,,,
SHHRPRLFHRRRH [LCE-2B74-86],1.18,> 150 µg/mL,,,
"SRRSSSLSRSSSRSSRSSSSSR [HR 1-18,4H-4R/9G-9S]",150,> 300 µg/mL,0.15,1.18,"LD90 (S. aureus ATCC 6538; pH 7.2, 0.25% glucose): 75 µg/mL; LD100 (S. aureus ATCC 6538; pH 7.2, 0.25% glucose): > 300 µg/mL"
